We go through three compounds from patent US20110104175A1, “METHODS OF TREATMENT FOR PULMONARY FIBROSIS” (CEDARS-SINAI MEDICAL CENTER, priority 2008, published 2011).

For one data set, the system named is rats. The conditions noted are these: model of heart infarction; cited from earlier work.
For data set [1], the system named is wild-type and N-KO mice. The conditions noted are these: for cell content of the bronchoalveolar lavage: intratracheal bleomycin without S17092, two weeks. The source says:
(§1) Preparation of Mice. We generated mice expressing site-inactivated ACE by homologous recombination. N-KO mice express a full length ACE protein where the N-terminal catalytic site was inactivated by mutating two zinc-binding histidines (^395H and ^399H) to lysines. In the C-KO strain, ^993H and ^997H, which are responsible for the zinc binding and catalytic activity of the C-terminal enzymatic site, were mutated to lysine. The generation of these two strains of mice has been described in detail prior. Both N-KO and C-KO mice are a genetic mix of strains 129 and C57BL/6. Age and gender-matched littermate controls were used in all studies. All mice used in this study have only one functional renin gene. Drug Administration. The administration of bleomycin was performed under anesthesia by intratracheal instillation as previously described. A small skin incision was made to expose the trachea. A 25-gauge needle was inserted directly into the trachea without reaching the bifurcation and the animals were maintained on the surgical board with a 30 degree angle to ensure a correct diffusion of the drug or saline to both lungs. Bleomycin was solubilized in water, aliquoted, lyophilized and kept at −20 C. For each experiment a fresh aliquot was dissolved in saline and, unless otherwise indicated, administered in a dose of 1 mg/kg. The concentration of the solution was adapted to inject 2 μl/g, The skin was then sutured and the animal monitored until complete recovery.
(§2) Absorbance was measured at 550 nm.

In data set [2] the test system is wild-type, N-KO and C-KO mice.
Text: as §1, §2

The conditions of data set [3]: cited from earlier work.
For data set [4] the following is noted: mouse; cited from earlier work.
Data set [5] deals with ACE N-domain and C-terminal domain. The conditions noted are these: N-domain versus C-terminal domain; cited from earlier work.
The subject of data set [6] is wild-type, N-KO and C-KO mice. The data set is described as follows: Weight loss after intratracheal instillation of bleomycin.
Text: as §1
Weight loss is a typical feature secondary to bleomycin administration and is associated with the severity of the pulmonary lesions.

In data set [7] the test system is wild-type and N-KO mice. As to the kind of experiment: Lung histology 14 days after bleomycin. Format: in vivo, mouse. The conditions noted are these: bleomycin 0.5 mg/kg. How it is done:
A group of 8 N-KO and 8 wild-type control mice received 0.5 mg/kg body weight of bleomycin. These animals were sacrificed 14 days later. Under deep anesthesia, the thoracic cage was opened to expose the lung. A 25 G needle was secured in the trachea and 0.8 to 1 ml of 10% buffered formalin was injected until the lungs were inflated. The trachea was then ligatured. The whole lung was carefully collected in one block with the heart and immersed in formalin overnight. The tissue was then dehydrated and paraffin embedded using standard techniques. Five micron coronal sections were obtained from the central part of the lung and were stained with either Masson's trichrome or with hematoxylin and eosin. For each animal, both right and left lobes of the lung were examined by a pathologist blinded to the genotype of the mice.

A further data set concerns patients. The conditions noted are these: cited from earlier work.
The test system of data set [8] is wild-type and N-KO mice. The data set is described as follows: Survival analysis after intratracheal bleomycin.
Text: as §1, §2

Read-outs that look alike come from different tables or passages of the source. Peptide text beside a SMILES is read from it.

Consider `CC(=O)N[C@@H](CO)C(=O)N[C@@H](CC(=O)O)C(=O)N[C@@H](CCCCN)C(=O)N1CCC[C@H]1C(=O)O` [AcSDKP, N-acetyl-seryl-aspartyl-lysyl-proline] (Ac-SDKP-OH), for which, in the data set with rats, the collagen deposition result is “prevented and even reversed collagen deposition”. For the same compound, in the data set on wild-type and N-KO mice [1] (wild-type mice, AcSDKP 1 mg/kg/day by osmotic minipump, bleomycin on day 2, two weeks later, versus saline-filled minipump), the lavage cellularity result is recorded as “substantially reduced lavage cellularity”. The “collagen deposition, as assessed by hydroxyproline” value in [2] (wild-type mice, AcSDKP 1 mg/kg/day by osmotic minipump, bleomycin) is recorded as “did not significantly reduce the collagen deposition”.
For the compound “Ac-Asp-(L)Pheψ(PO2—CH2)(L)Ala-Ala-NH2 (Ac-DFAA-NH2; also: Phe2-Ala3 peptide bond replaced by phosphinic ψ(PO2-CH2) bond) [RXP 407]”, in [3] (RXP 407 combined with Ac-SDKP infusion), the “elevation of plasma Ac-SDKP” value is given as 16 fold. Besides, the “increase of plasma level of Ac-SDKP” value in data set [3] (mouse, RXP 407 alone) is not above 6 fold. The stability in vivo entry in [4] is listed as “stable in vivo”. Also, the “dissociation constant for the ACE N-domain relative to the C-terminal domain” value in [5] is on record as “three orders of magnitude lower”.
For the compound bleomycin, in [6] (C-KO mice), the “weight loss, C-KO mice versus wild-type controls” value is “no significant difference in weight loss”. The figures for the weight loss in data set [6] (N-KO mice) and in [6] (wild-type animals) were 1.60±1.23% and 9.26±2.52%, respectively. For the same compound, the “cell content of the bronchoalveolar lavage” value in the data set with wild-type and N-KO mice [1] (N-KO mice) is 12.73±1.58 10^5 cells per lung; in the data set on wild-type and N-KO mice [1] (wild-type mice), 24.21±3.10 10^5 cells per lung. Besides, in [2] (N-KO mice, two weeks after intratracheal bleomycin), the “pulmonary collagen levels (hydroxyproline)” value was “did not increase pulmonary collagen levels”. In addition, the “hydroxyproline content of lungs” value in [2] (wild-type and C-KO mice, two weeks after intratracheal bleomycin) is listed as “significantly increased the hydroxyproline content”. Further, in the data set with wild-type and N-KO mice [7] (N-KO mice), the “lung histology (inflammation, collagen stripes) versus wild-type” value was “much reduced”. The lung histology result in the data set with wild-type and N-KO mice [7] (wild-type mice) is reported as “extensive lung injury”. Also, the “patients with lung injury who die of lung injury” value in the data set on patients (of the patients who develop lung injury) is given as 1-3%. Moreover, in the data set on patients (patients treated with bleomycin, meta-analysis), the “patients developing sufficient lung injury to necessitate cessation of treatment” value is listed as 10 to 50%. Besides, in the data set on wild-type and N-KO mice [8] (N-KO mice, bleomycin 5 mg/kg body weight intratracheal), the long-term survival was 4 of 15. The “mice surviving 12 days after drug administration” value in the data set with wild-type and N-KO mice [8] (wild-type mice, bleomycin 5 mg/kg body weight intratracheal) is 1 of 15. For the same compound, the deaths result with wild-type and N-KO mice [8] (wild-type or N-KO mice, bleomycin 1 mg/kg body weight intratracheal) is reported as “virtually no deaths”.
